This note sets out measurements from paper PMC7486443, “Generation of Phenothiazine with Potent Anti-TLK1 Activity for Prostate Cancer Therapy” (iScience, 2020).

Common to all, as to test: biochemical
Holding throughout (design): DiscoverX KINOMEscan scanMAX competition binding panel, single concentration, percent of control; remaining binding: dose or concentration left out as unconfirmed
Details in all cases: KINOMEscan binding, percent of control; read-out: Table S4_SCANMAX REPORT - related to Fig. 1 / Percent Control

In assay [1] the target is T1, RPS6KA4(Kin.Dom.1-N-terminal) (Homo sapiens, UniProt O75676).
T1 construct: Kin.Dom.1-N-terminal

Assay [2] concerns the target KIT(A829P) (Homo sapiens, UniProt P10721, A829P).
Assay [3] concerns the target TNK1 (Homo sapiens, UniProt Q13470).
In assay [4] the target is ALK(C1156Y) (Homo sapiens, UniProt Q9UM73, C1156Y).
Assay [5] addresses RIOK2 (Homo sapiens, UniProt Q9BVS4).
The target of assay [6] is PIKFYVE (Homo sapiens, UniProt Q9Y2I7).
Assay [7] concerns the target ALK(L1196M) (Homo sapiens, UniProt Q9UM73, L1196M).
In assay [8] the target is ABL2 (Homo sapiens, UniProt P42684).
The target in assay [9] is FLT3(D835V) (Homo sapiens, UniProt P36888, D835V).
Assay [10] has as its target FLT3(K663Q) (Homo sapiens, UniProt P36888, K663Q).
The target of assay [11] is T2, MLK3 (Homo sapiens, UniProt Q16584).
T2 construct: gene MAP3K11

In assay [12] the target is TIE1 (Homo sapiens, UniProt P35590).
For assay [13], the target named is CHEK1 (Homo sapiens, UniProt O14757).
For assay [14], the target named is KIT (Homo sapiens, UniProt P10721).
Assay [15] deals with PIK3CB (Homo sapiens, UniProt P42338).
Assay [16] deals with T3, ADCK4 (Homo sapiens, UniProt Q96D53).
T3 construct: gene COQ8B

Assay [17] addresses T4, MEK6 (Homo sapiens, UniProt P52564).
T4 construct: gene MAP2K6

Assay [18] has as its target T5, ASK1 (Homo sapiens, UniProt Q99683).
T5 construct: gene MAP3K5

ABL2, sequence (P42684 whole entry): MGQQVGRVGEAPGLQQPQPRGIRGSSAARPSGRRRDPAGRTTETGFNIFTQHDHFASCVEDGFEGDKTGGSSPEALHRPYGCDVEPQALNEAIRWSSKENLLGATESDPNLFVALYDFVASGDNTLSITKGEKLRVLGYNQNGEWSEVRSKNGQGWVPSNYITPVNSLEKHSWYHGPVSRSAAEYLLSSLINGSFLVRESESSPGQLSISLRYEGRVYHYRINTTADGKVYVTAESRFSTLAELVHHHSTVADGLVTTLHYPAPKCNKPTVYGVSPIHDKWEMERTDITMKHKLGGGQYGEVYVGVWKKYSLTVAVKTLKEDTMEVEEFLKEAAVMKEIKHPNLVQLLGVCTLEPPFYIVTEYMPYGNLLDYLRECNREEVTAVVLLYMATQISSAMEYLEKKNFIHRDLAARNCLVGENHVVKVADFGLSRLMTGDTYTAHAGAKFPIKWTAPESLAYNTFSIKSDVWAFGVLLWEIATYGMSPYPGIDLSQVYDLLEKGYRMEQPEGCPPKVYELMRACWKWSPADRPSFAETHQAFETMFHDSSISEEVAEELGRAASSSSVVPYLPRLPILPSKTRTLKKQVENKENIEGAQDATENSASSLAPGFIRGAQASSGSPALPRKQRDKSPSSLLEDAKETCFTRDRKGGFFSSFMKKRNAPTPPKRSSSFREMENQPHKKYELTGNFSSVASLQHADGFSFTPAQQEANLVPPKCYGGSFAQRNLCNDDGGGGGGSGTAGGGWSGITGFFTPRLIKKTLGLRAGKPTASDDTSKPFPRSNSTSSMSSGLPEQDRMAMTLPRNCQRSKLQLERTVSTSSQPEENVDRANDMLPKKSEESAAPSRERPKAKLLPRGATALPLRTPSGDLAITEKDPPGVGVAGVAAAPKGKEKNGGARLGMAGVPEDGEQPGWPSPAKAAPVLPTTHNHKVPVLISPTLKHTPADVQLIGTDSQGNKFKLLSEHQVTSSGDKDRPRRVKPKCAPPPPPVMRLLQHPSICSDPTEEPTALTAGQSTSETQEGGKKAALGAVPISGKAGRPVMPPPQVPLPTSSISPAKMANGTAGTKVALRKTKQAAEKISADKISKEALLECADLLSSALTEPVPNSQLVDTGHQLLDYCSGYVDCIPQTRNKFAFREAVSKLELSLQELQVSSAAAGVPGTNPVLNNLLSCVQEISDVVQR
T4 sequence (P52564 whole entry): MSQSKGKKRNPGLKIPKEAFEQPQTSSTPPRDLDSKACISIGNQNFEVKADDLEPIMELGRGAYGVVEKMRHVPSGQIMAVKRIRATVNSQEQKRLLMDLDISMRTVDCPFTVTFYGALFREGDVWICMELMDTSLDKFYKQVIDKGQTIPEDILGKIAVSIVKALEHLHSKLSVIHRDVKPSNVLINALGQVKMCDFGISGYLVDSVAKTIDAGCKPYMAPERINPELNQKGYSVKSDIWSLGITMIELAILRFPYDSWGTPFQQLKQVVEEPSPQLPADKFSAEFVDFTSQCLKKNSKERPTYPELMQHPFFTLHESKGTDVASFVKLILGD
PIK3CB, sequence (P42338 whole entry): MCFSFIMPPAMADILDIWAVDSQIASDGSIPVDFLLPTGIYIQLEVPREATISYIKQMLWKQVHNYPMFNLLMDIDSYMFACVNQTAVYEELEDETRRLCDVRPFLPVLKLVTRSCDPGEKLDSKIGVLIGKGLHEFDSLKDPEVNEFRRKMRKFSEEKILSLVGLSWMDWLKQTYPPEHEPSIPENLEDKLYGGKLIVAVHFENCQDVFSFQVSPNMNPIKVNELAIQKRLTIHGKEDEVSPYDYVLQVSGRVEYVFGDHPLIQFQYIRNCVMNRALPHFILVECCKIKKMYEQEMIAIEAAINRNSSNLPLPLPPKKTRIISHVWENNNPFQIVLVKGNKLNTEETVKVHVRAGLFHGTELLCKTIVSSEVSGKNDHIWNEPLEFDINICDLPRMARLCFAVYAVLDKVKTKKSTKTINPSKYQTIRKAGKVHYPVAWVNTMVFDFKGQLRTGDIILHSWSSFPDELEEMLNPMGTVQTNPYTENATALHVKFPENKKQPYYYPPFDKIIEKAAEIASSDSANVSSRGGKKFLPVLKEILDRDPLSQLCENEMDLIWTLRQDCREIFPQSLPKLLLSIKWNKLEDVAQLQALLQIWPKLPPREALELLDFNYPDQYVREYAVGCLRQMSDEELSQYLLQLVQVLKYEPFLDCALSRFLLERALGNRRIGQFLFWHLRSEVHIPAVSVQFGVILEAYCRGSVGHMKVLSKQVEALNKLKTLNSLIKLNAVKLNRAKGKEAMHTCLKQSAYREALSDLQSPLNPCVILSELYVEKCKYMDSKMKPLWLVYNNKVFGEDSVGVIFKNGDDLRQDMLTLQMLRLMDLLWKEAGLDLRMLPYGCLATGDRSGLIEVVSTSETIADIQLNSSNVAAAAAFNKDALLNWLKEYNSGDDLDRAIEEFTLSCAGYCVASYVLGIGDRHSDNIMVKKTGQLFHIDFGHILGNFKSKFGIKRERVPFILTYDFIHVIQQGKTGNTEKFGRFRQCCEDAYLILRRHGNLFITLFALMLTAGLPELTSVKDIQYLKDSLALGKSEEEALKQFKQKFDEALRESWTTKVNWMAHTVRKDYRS
T5 sequence (Q99683 whole entry): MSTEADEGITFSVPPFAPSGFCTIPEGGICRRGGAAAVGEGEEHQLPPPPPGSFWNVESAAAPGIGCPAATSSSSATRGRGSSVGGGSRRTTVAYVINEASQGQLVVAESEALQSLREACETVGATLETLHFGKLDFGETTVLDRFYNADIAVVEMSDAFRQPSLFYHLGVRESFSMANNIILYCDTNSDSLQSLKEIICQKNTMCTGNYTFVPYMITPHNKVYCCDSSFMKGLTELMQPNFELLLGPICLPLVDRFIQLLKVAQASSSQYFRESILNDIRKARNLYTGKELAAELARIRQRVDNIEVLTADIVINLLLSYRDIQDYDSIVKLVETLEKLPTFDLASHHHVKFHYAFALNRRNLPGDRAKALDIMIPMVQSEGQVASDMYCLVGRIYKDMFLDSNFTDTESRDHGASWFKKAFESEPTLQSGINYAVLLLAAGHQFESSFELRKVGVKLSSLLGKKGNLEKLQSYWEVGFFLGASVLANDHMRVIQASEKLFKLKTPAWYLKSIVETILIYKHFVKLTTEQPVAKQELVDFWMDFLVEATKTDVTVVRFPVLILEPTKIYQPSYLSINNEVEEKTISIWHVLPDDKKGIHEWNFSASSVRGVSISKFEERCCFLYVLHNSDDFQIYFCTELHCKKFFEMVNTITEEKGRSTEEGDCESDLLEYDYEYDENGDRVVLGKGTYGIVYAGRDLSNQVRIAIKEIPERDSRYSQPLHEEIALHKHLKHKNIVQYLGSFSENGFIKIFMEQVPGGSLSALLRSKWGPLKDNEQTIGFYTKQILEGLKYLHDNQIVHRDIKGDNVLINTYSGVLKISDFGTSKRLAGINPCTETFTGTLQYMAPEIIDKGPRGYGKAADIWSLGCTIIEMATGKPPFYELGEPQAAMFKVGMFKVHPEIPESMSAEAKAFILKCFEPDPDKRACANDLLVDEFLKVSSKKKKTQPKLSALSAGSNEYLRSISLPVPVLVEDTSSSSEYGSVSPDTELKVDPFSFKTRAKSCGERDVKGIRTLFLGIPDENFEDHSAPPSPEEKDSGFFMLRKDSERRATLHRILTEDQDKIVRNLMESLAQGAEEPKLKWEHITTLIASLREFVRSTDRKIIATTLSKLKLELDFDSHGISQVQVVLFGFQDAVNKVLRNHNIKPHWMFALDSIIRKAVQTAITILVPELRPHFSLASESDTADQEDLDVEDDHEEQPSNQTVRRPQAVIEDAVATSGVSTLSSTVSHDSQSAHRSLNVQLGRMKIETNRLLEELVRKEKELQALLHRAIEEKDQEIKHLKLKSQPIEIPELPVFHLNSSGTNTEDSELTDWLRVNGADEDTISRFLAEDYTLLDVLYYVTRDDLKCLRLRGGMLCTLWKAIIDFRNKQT
T1 sequence (O75676 whole entry): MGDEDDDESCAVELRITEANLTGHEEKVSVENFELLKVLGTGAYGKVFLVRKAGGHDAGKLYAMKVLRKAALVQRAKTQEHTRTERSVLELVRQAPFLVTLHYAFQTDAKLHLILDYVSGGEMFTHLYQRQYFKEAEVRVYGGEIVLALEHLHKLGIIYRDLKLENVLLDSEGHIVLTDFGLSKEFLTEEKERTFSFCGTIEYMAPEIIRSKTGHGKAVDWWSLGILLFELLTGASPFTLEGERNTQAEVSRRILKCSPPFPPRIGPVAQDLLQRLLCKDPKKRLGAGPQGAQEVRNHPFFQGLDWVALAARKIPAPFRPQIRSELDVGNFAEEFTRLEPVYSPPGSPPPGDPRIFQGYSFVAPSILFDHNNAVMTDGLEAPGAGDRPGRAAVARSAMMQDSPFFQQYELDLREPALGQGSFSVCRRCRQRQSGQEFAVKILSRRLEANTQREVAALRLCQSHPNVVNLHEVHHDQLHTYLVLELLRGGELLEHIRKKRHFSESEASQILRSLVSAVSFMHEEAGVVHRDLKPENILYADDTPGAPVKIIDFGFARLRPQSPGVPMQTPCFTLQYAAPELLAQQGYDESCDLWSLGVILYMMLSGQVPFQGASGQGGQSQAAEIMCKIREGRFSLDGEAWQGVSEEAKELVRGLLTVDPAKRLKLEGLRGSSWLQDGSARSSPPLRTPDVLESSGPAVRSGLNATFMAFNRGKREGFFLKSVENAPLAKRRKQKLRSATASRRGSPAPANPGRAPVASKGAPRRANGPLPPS

With `c1ccc2c(c1)Sc1ccccc1N2CCN1CCOCC1` [J54], the remaining binding in assay [1] was determined as 75%; in assay [2], 94%; in assay [3], 99%; in [4], 100%; in assay [5], 100%; in assay [6] it was 94%. Besides, the remaining binding in [7] was found to be 100%; in [8], 100%; in assay [9], 46%; in assay [10], 94%; in assay [11], 100%; in assay [12] it was 98%. Moreover, the remaining binding in [13] is 100%; in assay [14], 100%; in [15] it was 100%; in assay [16] it was 75%; in assay [17], 96%; in [18] it was 98%.
